In US11286268B1, “EIF4E-inhibiting compounds and methods” (EFFECTOR THERAPEUTICS, INC., priority 2019, dated 2022):
Where two headings read alike, the source gives them in different places.

Biological target: recombinant eIF4E (Homo sapiens (Human), UniProt P06730)
Assay: Fluorescence polarization competition assay for eIF4E binding potency
How it was run: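 IC50 values reflect 50% displacement of 20 nM EDA-m7GDP-ATTO-550 from 75 nM eIF4E, measured by fluorescence polarization after 30 min at room temperature. Buffer: 20 mM Tris pH 7.5, 100 mM NaCl, 1 mM DTT, 0.02% Tween-20; 1% DMSO.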

[1] = fluorescence polarization competition, 75 nM recombinant eIF4E, 20 nM EDA-m7GDP-ATTO-550, IC50 class, read-out: elF4E FP
[2] = inhibition of eIF4E/EDA-m7GDP-ATTO-550 binding by 50%, Table 4B calculated values, read-out: IC50

Chain of recombinant eIF4E (P06730 whole entry): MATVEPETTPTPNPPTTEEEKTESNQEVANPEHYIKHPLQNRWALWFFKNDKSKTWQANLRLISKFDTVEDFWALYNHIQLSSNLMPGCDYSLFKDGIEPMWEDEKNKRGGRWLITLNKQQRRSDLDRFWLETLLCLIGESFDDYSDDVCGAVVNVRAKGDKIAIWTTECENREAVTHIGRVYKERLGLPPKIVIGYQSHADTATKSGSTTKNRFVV

| Compound | IC50 [1] [µM] | IC50 [2] [µM] |
| --- | --- | --- |
| Cc1cc(-c2cc(Cl)ccc2OCCn2c(C)nc3cc(C(F)(F)F)c(-c4ccc(Cl)nc4)c(C#N)c3c2=O)c2scc(C(=O)O)c2n1 [compound 1059] | < 0.05 | 0.0111 |
| COc1ccc(-c2c(Cl)cc3nc(C)n(CCOc4ccc(Cl)cc4-c4cc(C)nc5c(C(=O)O)csc45)c(=O)c3c2C#N)cn1 [compound 1061] | < 0.05 | 0.00854 |
| CCc1cc(-c2cc(Cl)ccc2OCCn2c(C)nc3cnc(CC)c(C#N)c3c2=O)c2scc(C(=O)O)c2n1 [compound 1062] | < 0.05 | 0.00663 |
| CCCc1ncc2nc(C)n(CCOc3ccc(Cl)cc3-c3cc(C)nc4c(C(=O)O)csc34)c(=O)c2c1C#N [compound 1063] | < 0.05 | – |
| Cc1cc(-c2cc(Cl)ccc2OCCn2c(C)nc3cnc(CCF)c(C#N)c3c2=O)c2scc(C(=O)O)c2n1 [compound 1064] | < 0.05 | 0.0162 |
| Cc1cc(-c2cc(Cl)ccc2OCCn2c(C)nc3cnc(C(C)F)c(C#N)c3c2=O)c2scc(C(=O)O)c2n1 (stereo not shown) [compound 1065] | < 0.05 | 0.0186 |
| COCc1ncc2nc(C)n(CCOc3ccc(Cl)cc3-c3cc(C)nc4c(C(=O)O)csc34)c(=O)c2c1C#N [compound 1066] | 0.05 to 1 | 0.0574 |
| CCOc1ncc2nc(C)n(CCOc3ccc(Cl)cc3-c3cc(C)nc4c(C(=O)O)csc34)c(=O)c2c1C#N [compound 1067] | < 0.05 | 0.0105 |
| CCc1cc(-c2cc(Cl)ccc2OCCn2c(C)nc3cnc(N)c(C#N)c3c2=O)c2scc(C(=O)O)c2n1 [compound 1071] | 0.05 to 1 | 0.054 |
| Cc1cc(-c2cc(Cl)ccc2OCCn2c(C)nc3cnc(N)c(C#N)c3c2=O)c2scc(C(=O)O)c2n1 [compound 1072] | < 0.05 | 0.0372 |
| CCOc1c(C(F)(F)F)cc2nc(C)n(CCOc3ccc(Cl)cc3-c3cc(C)nc4c(C(=O)O)csc34)c(=O)c2c1C#N [compound 1073] | 0.05 to 1 | 0.0581 |
| Cc1cc(-c2cc(Cl)ccc2OCCn2c(C)nc3cc(C(F)(F)F)c(OCC(F)(F)F)c(C#N)c3c2=O)c2scc(C(=O)O)c2n1 [compound 1074] | < 0.05 | 0.0174 |
| Cc1cc(-c2cc(Cl)ccc2OCCn2c(C)nc3cc(C(F)(F)F)c(N4CCN(C)CC4=O)c(C#N)c3c2=O)c2scc(C(=O)O)c2n1 [compound 1075] | < 0.05 | 0.00664 |
| CCCc1cc(-c2cc(Cl)ccc2OCCn2c(C)nc3cnc(C4CC4)c(C#N)c3c2=O)c2scc(C(=O)O)c2n1 [compound 1076] | < 0.05 | 0.0245 |
| CCc1cc(-c2cc(Cl)ccc2OCCn2c(N)nc3cc(Cl)cc(C#N)c3c2=O)c2scc(C(=O)O)c2n1 [compound 1077] | 0.05 to 1 | 0.245 |
| CCc1cc(-c2cc(Cl)ccc2OCCn2c(=O)[nH]c3cc(Cl)cc(C#N)c3c2=O)c2scc(C(=O)O)c2n1 [compound 1078] | 0.05 to 1 | 0.347 |
| Cc1cc(-c2cc(Cl)ccc2OCCn2c(C)nc3cc(C(F)(F)F)c(N4CCN(C)CC4)c(C#N)c3c2=O)c2scc(C(O)(O)C(F)(F)F)c2n1 [compound 1079] | – | 0.0559 |
| Cc1cc(-c2cc(Cl)ccc2OCCn2c(C)nc3cc(C(F)(F)F)c(N4CCN(C)CC4)c(C#N)c3c2=O)c2scc(C(O)C(F)(F)F)c2n1 (stereo not shown) [compound 1080] | 0.05 to 1 | 0.105 |
| Cc1cc(-c2cc(Cl)ccc2OCCn2c(C)nc3cc(C(F)(F)F)c(-c4cc(F)cnc4C)c(C#N)c3c2=O)c2scc(C(=O)OCCN3CCCC3)c2n1 [compound 1081] | > 1 | 1.04 |

| Compound | IC50 [1] [µM] | IC50 [2] [µM] |
| --- | --- | --- |
| Cc1cc(-c2cc(Cl)ccc2OCCn2c(C)nc3cc(C(F)(F)F)c(N4CCN(C)CC4)c(C#N)c3c2=O)c2scc(C(=O)OC(C)OC(=O)OC3CCCCC3)c2n1 (stereo not shown) [compound 1082] | 0.05 to 1 | 0.903 |
| CCc1cc(-c2cc(Cl)ccc2OCCn2c(C)nc3cc(C(F)(F)F)c(N4CCN(C)CC4)cc3c2=O)c2scc(C(=O)O)c2n1 [compound 1083] | < 0.05 | 0.044 |
| CCc1cc(-c2cc(Cl)ccc2OCCn2c(C)nc3cc(C(F)(F)F)c(N4CCN(C)CC4)nc3c2=O)c2scc(C(=O)O)c2n1 [compound 1084] | < 0.05 | 0.015 |
| CCc1cc(-c2cc(Cl)ccc2OCCn2c(C)nc3cc(C(F)(F)F)c(N4CCN(C)CC4)c(C#N)c3c2=O)c2scc(C(=O)O)c2n1 [compound 1085] | 0.05 to 1 | 0.0543 |
| CCc1cc(-c2cc(Cl)ccc2OCCn2c(C)nc3cnc(N4CCN(C)CC4)c(C#N)c3c2=O)c2scc(C(=O)O)c2n1 [compound 1086] | < 0.05 | 0.0384 |
| CCc1cc(-c2cc(Cl)ccc2OCCn2c(C)nc3cc(C(F)(F)F)c(N4CCN(C)CC4)c(C#N)c3c2=O)c2sc(C)c(C(=O)O)c2n1 [compound 1087] | < 0.05 | 0.0392 |
| CCc1cc(-c2cc(Cl)ccc2OCCn2c(C)nc3cc(C(F)(F)F)c(C4=CCN(C)CC4)c(C#N)c3c2=O)c2scc(C(=O)O)c2n1 [compound 1088] | 0.05 to 1 | 0.0533 |
| Cc1cc(-c2cc(Cl)ccc2OCCn2c(C)nc3cnc(N4CCN(C)CC4)c(C#N)c3c2=O)c2sccc2n1 [compound 1089] | 0.05 to 1 | 0.618 |
| Cc1cc(-c2cc(Cl)ccc2OCCn2c(C)nc3cnc(N4CC(N(C)C)C4)c(C#N)c3c2=O)c2sc(C)c(C(=O)O)c2n1 [compound 1091] | 0.05 to 1 | 0.0914 |
| Cc1cc(-c2cc(Cl)ccc2OCCn2c(C)nc3cnc(N4[C@@H]5CC[C@H]4CN(C)C5)c(C#N)c3c2=O)c2sc(C)c(C(=O)O)c2n1 [compound 1092] | < 0.05 | 0.0427 |
| Cc1sc2c(-c3cc(Cl)ccc3OCCn3c(C)nc4cc(C(F)(F)F)c(N5CCN(C)CC5)c(C#N)c4c3=O)ccnc2c1C(=O)O [compound 1093] | 0.05 to 1 | 0.0586 |
| Cc1cc(-c2cc(Cl)ccc2OCCn2c(C)nc3cc(C(F)(F)F)c(N4CCN(C)CC4)nc3c2=O)c2sc(C)c(C(=O)O)c2n1 [compound 1096] | < 0.05 | 0.0335 |
| Cc1cc(-c2cc(Cl)ccc2OCCn2c(C)nc3cnc(N4CCC(F)(F)CC4)c(C#N)c3c2=O)c2scc(C(=O)O)c2n1 [compound 1097] | < 0.05 | 0.0388 |
| Cc1cc(-c2cc(Cl)ccc2OCCn2c(C)nc3cc(-c4cccnc4)c(Cl)c(C#N)c3c2=O)c2scc(C(=O)O)c2n1 [compound 1098] | < 0.05 | 0.0156 |
| Cc1nc2cnc(N(C)[C@H]3CC[C@H](N4CC(F)(F)C4)CC3)c(C#N)c2c(=O)n1CC#Cc1ccc(Cl)cc1-c1ccnc2c(C(=O)O)csc12 [compound 1099] | < 0.05 | – |
| Cc1nc2cnc(N(C)[C@H]3CC[C@@H](N4CC(F)(F)C4)CC3)c(C#N)c2c(=O)n1CC#Cc1ccc(Cl)cc1-c1ccnc2c(C(=O)O)csc12 [compound 1100] | < 0.05 | 0.0335 |
| Cc1nc2cnc(N3CCN(C4CC4)CC3(C)C)c(C#N)c2c(=O)n1CCOc1ccc(Cl)cc1-c1ccnc2c(C(=O)O)csc12 [compound 1101] | < 0.05 | 0.0072 |
| Cc1nc2cnc(N3CCN(C4CC4)CC3(C)C)c(C#N)c2c(=O)n1CC#Cc1ccc(Cl)cc1-c1ccnc2c(C(=O)O)csc12 [compound 1102] | < 0.05 | 0.0192 |
| Cc1nc2cnc(N(C)C3CCN(CC(F)(F)C(F)F)CC3)c(C#N)c2c(=O)n1CC#Cc1ccc(Cl)cc1-c1ccnc2c(C(=O)O)csc12 [compound 1103] | < 0.05 | 0.0148 |
